Measured values reported in PubChem BioAssay (NCI).
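Protocol summary: plate cells (96-well), add compound at 5 concentrations, incubate 48 h, interpolate endpoints linearly. TGI denotes the concentration required for complete inhibition of growth.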

Tests used:
Assay in all cases: inhibition of tumour cell growth, NCI panel, 48 h
BT-549 breast = system: BT-549 breast
OVCAR-4 ovarian = system: OVCAR-4 ovarian
OVCAR-8 ovarian = system: OVCAR-8 ovarian
SR leukemia = system: SR leukemia
IGROV1 ovarian = system: IGROV1 ovarian
NCI-H522 lung = system: NCI-H522 lung
MDA-MB-231 breast = system: MDA-MB-231 breast
PC-3 prostate = system: PC-3 prostate
HS 578T breast = system: HS 578T breast
TK-10 renal = system: TK-10 renal
SF-295 CNS = system: SF-295 CNS
MCF7 breast = system: MCF7 breast
UO-31 renal = system: UO-31 renal
OVCAR-3 ovarian = system: OVCAR-3 ovarian
NCI-H460 lung = system: NCI-H460 lung
CAKI-1 renal = system: CAKI-1 renal
RXF 393 renal = system: RXF 393 renal
UACC-62 melanoma = system: UACC-62 melanoma
NCI-H226 lung = system: NCI-H226 lung
SF-539 CNS = system: SF-539 CNS
SN12C renal = system: SN12C renal
HCT-15 colon = system: HCT-15 colon
M14 melanoma = system: M14 melanoma
HCC-2998 colon = system: HCC-2998 colon
ACHN renal = system: ACHN renal
LOX IMVI melanoma = system: LOX IMVI melanoma
COLO 205 colon = system: COLO 205 colon
OVCAR-5 ovarian = system: OVCAR-5 ovarian
UACC-257 melanoma = system: UACC-257 melanoma
SK-MEL-2 melanoma = system: SK-MEL-2 melanoma
NCI-H23 lung = system: NCI-H23 lung
MDA-N = system: MDA-N
HOP-92 NSCLC = system: HOP-92 NSCLC
HOP-62 NSCLC = system: HOP-62 NSCLC
HL-60(TB) leukemia = system: HL-60(TB) leukemia
DU-145 prostate = system: DU-145 prostate
SNB-75 CNS = system: SNB-75 CNS
MDA-MB-435 = system: MDA-MB-435
SNB-19 CNS = system: SNB-19 CNS
HT29 colon = system: HT29 colon
U251 CNS = system: U251 CNS
MALME-3M melanoma = system: MALME-3M melanoma
SK-MEL-5 melanoma = system: SK-MEL-5 melanoma
SF-268 CNS = system: SF-268 CNS
K-562 leukemia = system: K-562 leukemia
786-0 renal = system: 786-0 renal
NCI/ADR-RES ovarian = system: NCI/ADR-RES ovarian
A549 NSCLC = system: A549 NSCLC
A498 renal = system: A498 renal
CCRF-CEM leukemia = system: CCRF-CEM leukemia
SK-MEL-28 melanoma = system: SK-MEL-28 melanoma
SW-620 colon = system: SW-620 colon
HCT-116 colon = system: HCT-116 colon
SK-OV-3 ovarian = system: SK-OV-3 ovarian
MOLT-4 leukemia = system: MOLT-4 leukemia
T-47D breast = system: T-47D breast
KM12 colon = system: KM12 colon
EKVX NSCLC = system: EKVX NSCLC
RPMI-8226 leukemia = system: RPMI-8226 leukemia

## O=c1[nH]c(Nc2nc3ccccc3[nH]2)nc2c1CCC2
BT-549 breast
  TGI: > 100 µM
OVCAR-4 ovarian
  TGI: > 100 µM
OVCAR-8 ovarian
  TGI: > 100 µM
SR leukemia
  TGI: > 100 µM
IGROV1 ovarian
  TGI: > 100 µM
NCI-H522 lung
  TGI: > 100 µM
MDA-MB-231 breast
  TGI: 51.1 µM
PC-3 prostate
  TGI: > 100 µM
HS 578T breast
  TGI: 63.5 µM
TK-10 renal
  TGI: > 100 µM
SF-295 CNS
  TGI: > 100 µM
MCF7 breast
  TGI: > 100 µM
UO-31 renal
  TGI: > 100 µM
OVCAR-3 ovarian
  TGI: > 100 µM
NCI-H460 lung
  TGI: > 100 µM
CAKI-1 renal
  TGI: > 100 µM
RXF 393 renal
  TGI: > 100 µM
UACC-62 melanoma
  TGI: > 100 µM
NCI-H226 lung
  TGI: > 100 µM
SF-539 CNS
  TGI: > 100 µM
SN12C renal
  TGI: > 100 µM
HCT-15 colon
  TGI: > 100 µM
M14 melanoma
  TGI: > 100 µM
HCC-2998 colon
  TGI: > 100 µM
ACHN renal
  TGI: > 100 µM
LOX IMVI melanoma
  TGI: > 100 µM
COLO 205 colon
  TGI: > 100 µM
OVCAR-5 ovarian
  TGI: > 100 µM
UACC-257 melanoma
  TGI: > 100 µM
SK-MEL-2 melanoma
  TGI: > 100 µM
NCI-H23 lung
  TGI: > 100 µM
MDA-N
  TGI: > 100 µM
HOP-92 NSCLC
  TGI: > 100 µM
HOP-62 NSCLC
  TGI: > 100 µM
HL-60(TB) leukemia
  TGI: > 100 µM
DU-145 prostate
  TGI: > 100 µM
SNB-75 CNS
  TGI: 77.8 µM
MDA-MB-435
  TGI: > 100 µM
SNB-19 CNS
  TGI: > 100 µM
HT29 colon
  TGI: > 100 µM
U251 CNS
  TGI: > 100 µM
MALME-3M melanoma
  TGI: > 100 µM
SK-MEL-5 melanoma
  TGI: > 100 µM
SF-268 CNS
  TGI: > 100 µM
K-562 leukemia
  TGI: > 100 µM
786-0 renal
  TGI: > 100 µM
NCI/ADR-RES ovarian
  TGI: > 100 µM
A549 NSCLC
  TGI: > 100 µM
A498 renal
  TGI: > 100 µM
CCRF-CEM leukemia
  TGI: > 100 µM
SK-MEL-28 melanoma
  TGI: > 100 µM
SW-620 colon
  TGI: > 100 µM
HCT-116 colon
  TGI: > 100 µM
SK-OV-3 ovarian
  TGI: > 100 µM

## O=C1O/C(=C(/Br)c2ccc(Cl)c(Cl)c2)c2ccccc21
OVCAR-4 ovarian
  TGI: > 10 µM
OVCAR-8 ovarian
  TGI: > 10 µM
SR leukemia
  TGI: > 10 µM
IGROV1 ovarian
  TGI: > 10 µM
MOLT-4 leukemia
  TGI: > 10 µM
NCI-H522 lung
  TGI: > 10 µM
MDA-MB-231 breast
  TGI: > 10 µM
PC-3 prostate
  TGI: > 10 µM
T-47D breast
  TGI: > 10 µM
HS 578T breast
  TGI: > 10 µM
TK-10 renal
  TGI: > 10 µM
SF-295 CNS
  TGI: > 10 µM
MCF7 breast
  TGI: > 10 µM
UO-31 renal
  TGI: > 10 µM
OVCAR-3 ovarian
  TGI: > 10 µM
NCI-H460 lung
  TGI: > 10 µM
CAKI-1 renal
  TGI: > 10 µM
RXF 393 renal
  TGI: > 10 µM
UACC-62 melanoma
  TGI: > 10 µM
NCI-H226 lung
  TGI: > 10 µM
SF-539 CNS
  TGI: > 10 µM
SN12C renal
  TGI: > 10 µM
HCT-15 colon
  TGI: > 10 µM
M14 melanoma
  TGI: > 10 µM
HCC-2998 colon
  TGI: > 10 µM
ACHN renal
  TGI: > 10 µM
LOX IMVI melanoma
  TGI: > 10 µM
COLO 205 colon
  TGI: > 10 µM
KM12 colon
  TGI: > 10 µM
OVCAR-5 ovarian
  TGI: > 10 µM
UACC-257 melanoma
  TGI: > 10 µM
SK-MEL-2 melanoma
  TGI: > 10 µM
NCI-H23 lung
  TGI: > 10 µM
MDA-N
  TGI: > 10 µM
HOP-92 NSCLC
  TGI: > 10 µM
HOP-62 NSCLC
  TGI: > 10 µM
HL-60(TB) leukemia
  TGI: > 10 µM
DU-145 prostate
  TGI: > 10 µM
SNB-75 CNS
  TGI: > 10 µM
MDA-MB-435
  TGI: > 10 µM
SNB-19 CNS
  TGI: > 10 µM
HT29 colon
  TGI: > 10 µM
U251 CNS
  TGI: > 10 µM
SK-MEL-5 melanoma
  TGI: > 10 µM
EKVX NSCLC
  TGI: > 10 µM
SF-268 CNS
  TGI: > 10 µM
K-562 leukemia
  TGI: > 10 µM
786-0 renal
  TGI: > 10 µM
NCI/ADR-RES ovarian
  TGI: > 10 µM
A549 NSCLC
  TGI: > 10 µM
CCRF-CEM leukemia
  TGI: > 10 µM
SK-MEL-28 melanoma
  TGI: > 10 µM
RPMI-8226 leukemia
  TGI: > 10 µM
SW-620 colon
  TGI: > 10 µM
HCT-116 colon
  TGI: > 10 µM
SK-OV-3 ovarian
  TGI: > 10 µM
